Data from patent US11472799B2, “Serine threonine kinase (AKT) degradation / disruption compounds and methods of use” (Icahn School of Medicine at Mount Sinai, priority 2018, dated 2022).

Experiments:
AKT [1] = assay: Western blot of AKT protein levels in PC-3 cells; assay type: cell-based, human; details: 1 μM (FIGS. 11 and 12)
Protocol: (§1) PC-3, U87MG, HCC1143, MDA-MB-231, MDA-MB-468, BT474 and MCF-7 cell lines were purchased from ATCC. Cell lines were regularly tested in the lab for mycoplasma. All cells were cultured at 37° C. and 5% CO2. PC-3, U87MG, MDA-MB-231, MCF-7 and BT474 cells were cultured in 1×DMEM (Corning, 10-013-CV) with 10% fetal bovine serum (Atlanta Biologicals S11150) and 1× Penicillin/Streptomycin. HCC1143 cells were cultured in RPMI (Corning, 10-040-CV) medium with 10% fetal bovine serum (Atlanta Biologicals S11150) and 1× Penicillin/Streptomycin. Cells were split using 0.05% or 0.25% trypsin (Corning 25-051-Cl or 25-053-Cl, respectively) before they reached full confluence and media was changed every 3-4 days. Cells were treated with compounds individually at different concentrations for 24 hrs. Cells were treated with DMSO, VHL, or PML alone as controls.
(§2) Cells were lysed in 2× sample buffer (125 mM Tris-HCl at pH 6.8, 10% βME, 2% SDS, 20% glycerol, 0.05% Bromophenol Blue, 8 M urea). Protein lysates were loaded into 4-12% Bis-Tris gels and resolved by electrophoresis. Samples were then blotted on PVDF membrane (Millipore IPVH00010) using the wet transfer technique (Invitrogen). Membranes were blocked in 5% milk-TBST for 1 hour, washed in TBST for 10 min, and incubated in primary antibody in 5% milk-TBST or 5% BSA-TBST at 4° C. for 16 h. Membranes were rinsed (3×6 min) in TBST and incubated in horseradish peroxidase-conjugated secondary antibodies in 5% milk-TBST for 1 hour and rinsed again in TBST (3×6 min). Membranes were visualized using the chemiluminescence system (Thermo 34080, 37075) on autoradiography film (Denville E3018). Primary Antibodies: R-actin (Sigma A5316), p-AKT (Ser473 CST-9721), total AKT (CST-9272), p-S6 (Ser240/244, CST-5364), p-PRAS40 (Thr246, CST-2997). Secondary Antibodies: Mouse (Thermo 31432), Rabbit (Thermo 31460).

AKT [2] = assay: Western blot of AKT protein levels and downstream signaling in BT474 cells; assay type: cell-based, human; details: Western blot (FIGS. 1, 3, 4)
Protocol: as §1, §2

Row | SMILES | suppression of AKT protein level and AKT activity (AKT [1]) | suppression of AKT protein level and AKT activity (AKT [2])
1 | Cc1ncsc1-c1ccc(CNC(=O)[C@@H]2C[C@@H](O)CN2C(=O)[C@@H](NC(=O)CCCCCCCNC(=O)CCc2cccc(-c3ccc4nc(-c5cccnc5N)n(-c5ccc(C6(N)CCC6)cc5)c4n3)c2)C(C)(C)C)cc1 [XF067-15, (2S,4R)-1-((S)-2-(8-(3-(3-(3-(4-(1-aminocyclobutyl)phenyl)-2-(2-aminopyridin-3-yl)-3H-imidazo[4,5-b]pyridin-5-yl)phenyl)propanamido)octanamido)-3,3-dimethylbutanoyl)-4-hydroxy-N-(4-(4-methylthiazol-5-yl)benzyl)pyrrolidine-2-carboxamide] | effective in suppressing AKT protein level and AKT activity | –
2 | Cc1ncsc1-c1ccc(CNC(=O)[C@@H]2C[C@@H](O)CN2C(=O)[C@@H](NC(=O)CCCCCCC(=O)NCCc2cccc(-c3ccc4nc(-c5cccnc5N)n(-c5ccc(C6(N)CCC6)cc5)c4n3)c2)C(C)(C)C)cc1 [XF067-44, N^1-(3-(3-(4-(1-aminocycIobutyl)phenyl)-2-(2-aminopyridin-3-yl)-3H-imidazo[4,5-b]pyridin-5-yl)phenethyl)-N^8-((S)-1-((2S,4R)-4-hydroxy-2-((4-(4-methylthiazol-5-yl)benzyl)carbamoyl)pyrrolidin-1-yl)-3,3-dimethyl-1-oxobutan-2-yl)octanediamide] | effective in suppressing AKT protein level and AKT activity | –
3 | CCn1c(-c2nonc2N)nc2c(C#CC(C)(C)O)ncc(OCCCNCCCC(=O)NCCCCCCCC(=O)N[C@H](C(=O)N3C[C@H](O)C[C@H]3C(=O)NCc3ccc(-c4scnc4C)cc3)C(C)(C)C)c21 [XF067-98, (2S,4R)-1-((S)-2-(8-(4-((3-((2-(4-amino-1,2,5-oxadiazol-3-yl)-1-ethyl-4-(3-hydroxy-3-methylbut-1-yn-1-yl)-1H-imidazo[4,5-c]pyridin-7-yl)oxy)propyl)amino)butanamido)octanamido)-3,3-dimethylbutanoyl)-4-hydroxy-N-(4-(4-methylthiazol-5-yl)benzyl)pyrrolidine-2-carboxamide] | effective in suppressing AKT protein level and AKT activity | –
4 | Cc1ncsc1-c1ccc(CNC(=O)[C@@H]2C[C@@H](O)CN2C(=O)[C@@H](NC(=O)CCCCCCCCNC(=O)CCc2cccc(-c3ccc4nc(-c5cccnc5N)n(-c5ccc(C6(N)CCC6)cc5)c4n3)c2)C(C)(C)C)cc1 [XF067-16, (2S,4R)-1-((S)-2-(9-(3-(3-(3-(4-(1-aminocyclobutyl)phenyl)-2-(2-aminopyridin-3-yl)-3H-imidazo[4,5-b]pyridin-5-yl)phenyl)propanamido)nonanamido)-3,3-dimethylbutanoyl)-4-hydroxy-N-(4-(4-methylthiazol-5-yl)benzyl)pyrrolidine-2-carboxamide] | effective in suppressing AKT protein level and AKT activity | –
5 | Cc1ncsc1-c1ccc(CNC(=O)[C@@H]2C[C@@H](O)CN2C(=O)[C@@H](NC(=O)CCCCCCCCCCNC(=O)CCc2cccc(-c3ccc4nc(-c5cccnc5N)n(-c5ccc(C6(N)CCC6)cc5)c4n3)c2)C(C)(C)C)cc1 [XF067-18, (2S,4R)-1-((S)-2-(11-(3-(3-(3-(4-(1-aminocyclobutyl)phenyl)-2-(2-aminopyridin-3-yl)-3H-imidazo[4,5-b]pyridin-5-yl)phenyl)propanamido)undecanamido)-3,3-dimethylbutanoyl)-4-hydroxy-N-(4-(4-methylthiazol-5-yl)benzyl)pyrrolidine-2-carboxamide] | effective in suppressing AKT protein level and AKT activity | –
6 | Cc1ncsc1-c1ccc(CNC(=O)[C@@H]2C[C@@H](O)CN2C(=O)[C@@H](NC(=O)CCCCCCCC(=O)N2CCN(CC[C@H](NC(=O)C3(N)CCN(c4ncnc5[nH]ccc45)CC3)c3ccc(Cl)cc3)CC2)C(C)(C)C)cc1 [XF050-19, 4-amino-N-((S)-1-(4-chlorophenyl)-3-(4-(9-(((S)-1-((2S,4R)-4-hydroxy-2-((4-(4-methylthiazol-5-yl)benzyl)carbamoyl)pyrrolidin-1-yl)-3,3-dimethyl-1-oxobutan-2-yl)amino)-9-oxononanoyl)piperazin-1-yl)propyl)-1-(7H-pyrrolo[2,3-d]pyrimidin-4-yl)piperidine-4-carboxamide] | – | effective in suppressing both AKT protein level and AKT activity
7 | Cc1ncsc1-c1ccc(CNC(=O)[C@@H]2C[C@@H](O)CN2C(=O)[C@@H](NC(=O)CCCCCCCCC(=O)N2CCN(CC[C@H](NC(=O)C3(N)CCN(c4ncnc5[nH]ccc45)CC3)c3ccc(Cl)cc3)CC2)C(C)(C)C)cc1 [XF050-20, 4-amino-N-((S)-1-(4-chlorophenyl)-3-(4-(10-(((S)-1-((2S,4R)-4-hydroxy-2-((4-(4-methylthiazol-5-yl)benzyl)carbamoyl)pyrrolidin-1-yl)-3,3-dimethyl-1-oxobutan-2-yl)amino)-10-oxodecanoyl)piperazin-1-yl)propyl)-1-(7H-pyrrolo[2,3-d]pyrimidin-4-yl)piperidine-4-carboxamide] | – | effective in suppressing both AKT protein level and AKT activity
8 | Cc1ncsc1-c1ccc(CNC(=O)[C@@H]2C[C@@H](O)CN2C(=O)[C@@H](NC(=O)CCCCCCCCCNC(=O)CCNC[C@@H](C(=O)N2CCN(c3ncnc4c3[C@H](C)C[C@H]4O)CC2)c2ccc(Cl)cc2)C(C)(C)C)cc1 [XF038-165A, (2S,4R)-1-((S)-2-(10-(3-(((S)-2-(4-chlorophenyl)-3-(4-((5R,7R)-7-hydroxy-5-methyl-6,7-dihydro-5H-cyclopenta[d]pyrimidin-4-yl)piperazin-1-yl)-3-oxopropyl)amino)propanamido)decanamido)-3,3-dimethylbutanoyl)-4-hydroxy-N-(4-(4-methylthiazol-5-yl)benzyl)pyrrolidine-2-carboxamide] | – | effective in suppressing both AKT protein level and AKT activity
9 | C[C@@H]1C[C@@H](O)c2ncnc(N3CCN(C(=O)[C@H](CNCCC(=O)NCCOCCOCCOCCOCCNc4cccc5c4C(=O)N(C4CCC(=O)NC4=O)C5=O)c4ccc(Cl)cc4)CC3)c21 (stereo partly drawn) [XF038-176A, 3-(((S)-2-(4-chlorophenyl)-3-(4-((5R,7R)-7-hydroxy-5-methyl-6,7-dihydro-5H-cyclopenta[d]pyrimidin-4-yl)piperazin-1-yl)-3-oxopropyl)amino)-N-(14-((2-(2,6-dioxopiperidin-3-yl)-1,3-dioxoisoindolin-4-yl)amino)-3,6,9,12-tetraoxatetradecyl)propanamide] | – | effective in suppressing both AKT protein level and AKT activity
10 | C[C@@H]1C[C@@H](O)c2ncnc(N3CCN(C(=O)[C@H](CNCCNC(=O)CCOCCOCCOCCNc4cccc5c4C(=O)N(C4CCC(=O)NC4=O)C5=O)c4ccc(Cl)cc4)CC3)c21 (stereo partly drawn) [XF048-2, N-(2-(((S)-2-(4-chlorophenyl)-3-(4-((5R,7R)-7-hydroxy-5-methyl-6,7-dihydro-5H-cyclopenta[d]pyrimidin-4-yl)piperazin-1-yl)-3-oxopropyl)amino)ethyl)-3-(2-(2-(2-((2-(2,6-dioxopiperidin-3-yl)-1,3-dioxoisoindolin-4-yl)amino)ethoxy)ethoxy)ethoxy)propanamide] | – | effective in suppressing both AKT protein level and AKT activity
11 | NC1(C(=O)N[C@@H](CCN2CCN(C(=O)CCOCCOCCOCCOCCOCCOCCOCCOCCNc3cccc4c3C(=O)N(C3CCC(=O)NC3=O)C4=O)CC2)c2ccc(Cl)cc2)CCN(c2ncnc3[nH]ccc23)CC1 (stereo partly drawn) [XF056-34, 4-amino-N-((1S)-1-(4-chlorophenyl)-3-(4-(1-((2-(2,6-dioxopiperidin-3-yl)-1,3-dioxoisoindolin-4-yl)amino)-3,6,9,12,15,18,21,24-octaoxaheptacosan-27-oyl)piperazin-1-yl)propyl)-1-(7H-pyrrolo[2,3-d]pyrimidin-4-yl)piperidine-4-carboxamide] | – | effective in suppressing both AKT protein level and AKT activity
12 | Cc1ncsc1-c1ccc([C@H](C)NC(=O)[C@@H]2C[C@@H](O)CN2C(=O)[C@@H](NC(=O)CCCCCCCCCC(=O)N2CCN(CC[C@H](NC(=O)C3(N)CCN(c4ncnc5[nH]ccc45)CC3)c3ccc(Cl)cc3)CC2)C(C)(C)C)cc1 [XF050-167, 4-amino-N-((S)-1-(4-chlorophenyl)-3-(4-(11-(((S)-1-((2S,4R)-4-hydroxy-2-(((S)-1-(4-(4-methylthiazol-5-yl)phenyl)ethyl)carbamoyl)pyrrolidin-1-yl)-3,3-dimethyl-1-oxobutan-2-yl)amino)-11-oxoundecanoyl)piperazin-1-yl)propyl)-1-(7H-pyrrolo[2,3-d]pyrimidin-4-yl)piperidine-4-carboxamide] | – | effective in suppressing both AKT protein level and AKT activity
